The target of the assay is T1, OsUGT79 (Oryza sativa, UniProt Q7XT97).
T1 construct: gene UGT79
T1 sequence (Q7XT97 1-466): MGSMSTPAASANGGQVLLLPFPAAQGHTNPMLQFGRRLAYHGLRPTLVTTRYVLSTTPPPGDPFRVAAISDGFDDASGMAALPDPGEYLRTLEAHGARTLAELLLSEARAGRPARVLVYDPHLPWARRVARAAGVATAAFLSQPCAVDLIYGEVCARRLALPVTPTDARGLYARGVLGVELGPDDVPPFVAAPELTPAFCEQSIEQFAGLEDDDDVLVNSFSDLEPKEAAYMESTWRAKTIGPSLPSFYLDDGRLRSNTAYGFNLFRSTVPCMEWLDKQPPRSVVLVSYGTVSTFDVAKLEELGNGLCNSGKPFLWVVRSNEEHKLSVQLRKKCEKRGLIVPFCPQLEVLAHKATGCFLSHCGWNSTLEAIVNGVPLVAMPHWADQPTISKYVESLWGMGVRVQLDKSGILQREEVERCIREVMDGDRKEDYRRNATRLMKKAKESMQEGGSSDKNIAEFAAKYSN
As to the kind of experiment: glucosylation assay of purified recombinant enzyme with HPLC-MS/MS ([…] DON/[…] UDP-glucose). It counts as biochemical.

Molecules are shown by their SMILES.

One may read the IC50 as the concentration needed to halve the response being measured.

As for `O=c1ccn([C@@H]2O[C@H](COP(=O)(O)OP(=O)(O)O)[C@@H](O)[C@H]2O)c(=O)[nH]1` [UDP], the concentration for half-maximal inhibition (IC50) is ~1500 µM.

Values taken from article PMC4516937 (Toxins, 2015).
